From PubChem BioAssay AID179 (DTP/NCI, 2004)
“And” between values parts separate entries of the source, which are not always exact repeats. Equal values may be shown once. The source made the active and inactive calls.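 The calls were made as follows: active = compounds giving half or more protection of infected cells from virus-caused growth loss, again on retest; inactive = the rest.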

Tested on: CEM cells HIV-1 protection, formazan growth assay
Experiment: NCI AIDS Antiviral Assay
Conditions: for IC50: measured here: growth of uninfected CEM cells
In short: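 Protection of CEM cells against HIV-1 measured as cell growth via soluble formazan read-out, with five concentrations tested on both infected and uninfected cells; failure to protect may reflect toxicity.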

| SMILES | EC50 | IC50 | outcome |
| --- | --- | --- | --- |
| C/C(=N\NC(=O)C[N+](C)(C)C)c1sc(-c2cccnc2)nc1C | > 135 µM | 72.4 µM |  |
| CCOC(=O)C1Sc2ccccc2N=C1C (stereo not drawn) | > 30.9 µM | > 30.9 µM |  |
| COc1nc2c(c(O)c(C)c(=O)n2OC2OC(COC(C)=O)C(OC(C)=O)C(OC(C)=O)C2OC(C)=O)c(=O)n1C (stereo not drawn) | > 61.7 µM | > 61.7 µM |  |
| O=C(O)/C=C/C=C/c1ccccc1 | > 200 µM | > 200 µM |  |
| O=C1Nc2ccccc2N=CC1NC(=O)C(c1ccccc1)c1ccccc1 (stereo not drawn) | > 257 µM | 224 µM |  |
| COc1cc(/C=C/C(=O)OCCc2ccccc2)ccc1O | > 8.32 µM | 5.13 µM |  |
| O=S(=O)(F)c1ccc(C[P+](c2ccccc2)(c2ccccc2)c2ccccc2)cc1 | > 200 µM | > 100 µM |  |
| CC(C)(C)[Si](C)(C)OCC1OC(n2ccc(=O)[nH]c2=O)C(O[Si](C)(C)C(C)(C)C)[C@@]12N[C@H](C(N)=O)CS2=O (stereo partly drawn) | > 200 µM | 12.3 µM |  |
| O=C1CCC(=O)N1C(c1ccccc1)(c1ccccc1)N1C(=O)CCC1=O | > 200 µM | 15.1 µM |  |
| O=S(=O)(CSc1ccccc1)c1ccccc1 | > 490 µM | 288 µM |  |
| C=CCOP1(OCC=C)=NP(OCC=C)(OCC=C)=NP(OCC=C)(OCC=C)=N1 | > 200 µM | 8.51 µM |  |
| C=C1C(=O)O[C@@H]2[C@H]1CCC(C)=C1C=CC(=O)[C@]12C |  |  | inactive |
| Cc1nc(N2N=C(c3ccc(Cl)cc3)CCC2=O)sc1[N+](=O)[O-] | > 74.1 µM | 32.4 µM |  |
| CC(CSC(=N)N)C(N)=O (stereo not drawn) | > 200 µM | > 200 µM |  |
| CN(C)c1ccc(C=C2c3ccccc3-c3ccccc32)cc1 | > 17.4 µM | > 17.4 µM |  |
| CC1(C)OC(COCCOCCCCCO)C(COCCOCCCCCO)O1 (stereo not drawn) |  |  | inactive |
| CCOC(=O)/C(=C/c1ccccc1Br)P(=O)(OCC)OCC | > 91.2 µM | 5.75 µM |  |
| Cc1ccccc1NC(=O)C(=O)Cc1nc2ccccc2s1 | > 12 µM | > 12 µM |  |
| Nc1ccc(/C=C\C2(CCl)OCCO2)cc1 | > 100 µM | > 100 µM |  |
| Cc1cc2c(c(C(=O)NCC(=O)N[C@@H](C)C(=O)OCc3ccccc3)c1)Oc1c(cc(C)cc1C(=O)NCC(=O)N[C@@H](C)C(=O)OCc1ccccc1)S2 | > 200 µM | 7.76 µM |  |
| Cc1cn(C2CC(F)C(COC(=O)CCCCCCCCCCCN=[N+]=[N-])O2)c(=O)[nH]c1=O (stereo not drawn) | 0.000631 µM | 2 µM |  |
| OCc1cc[te]c1 |  |  | inactive |

| SMILES | EC50 | IC50 | outcome |
| --- | --- | --- | --- |
| COC(=O)C1(C(=O)OC)N=C(C)OC1/C=C/c1ccccc1 (stereo not drawn) | > 200 µM | > 100 µM |  |
| CC(NC(=O)OCc1ccccc1)NC(=O)C(CC(=O)OC(C)(C)C)NC(=O)OC(C)(C)C (stereo not drawn) | > 200 µM | > 200 µM |  |
| CC(C)Oc1ccc(CNC2=NCCO2)c2ccccc12 | > 200 µM | 17.8 µM |  |
| COC(=O)C1CC2(C)C=CC1N(C(=O)OCc1ccccc1)C2 (stereo not drawn) | 63.1 µM | 102 µM |  |
| CC(C)=CCC1=C(O)C(=O)C(CC=C(C)C)=C(O)C1=O | > 83.2 µM | 43.7 µM |  |
| NS(=O)(=O)c1cc2c(cc1C(F)(F)F)NCNS2(=O)=O | > 759 µM | > 759 µM |  |
| O[C@H]1[C@H](O)[C@@H](O)CN2CC[C@H](O)[C@H]12 | 204 µM | 1260 µM |  |
| N/C(=N\N=C\c1ccc2c(c1)OCO2)N/N=C\c1ccc2c(c1)OCO2 | > 200 µM |  |  |
| CN(C)c1ccc(C2=NC(=S)NC(c3cc(Cl)ccc3O)C2)cc1 (stereo not drawn) | > 200 µM | 30.2 µM |  |
| O=C1C=CC2=C3c4cc(O)c(O)cc4CC3(O)COC2=C1O (stereo not drawn) | > 45.7 µM | 40.7 µM |  |
| O=C(c1ccccc1)c1ccc(COc2ccc(C(c3c(O)c4ccccc4oc3=O)c3c(O)c4ccccc4oc3=O)cc2)cc1 | > 200 µM | 35.5 µM |  |
| COc1cc(C[N+]23CC[N+](Cc4cc(OC)cc(OC)c4)(CC2)C3)cc(OC)c1 | > 525 µM | 214 µM |  |
| Cc1cccc(/C(Br)=C2/OC(=O)c3ccccc32)c1 | > 200 µM | 182 µM |  |
| Nc1nn2cc3c(nc2c1N=Nc1ccccc1)CCC3 | > 200 µM | > 200 µM |  |
| O=C(NCCCOC(=O)CCCCCCCCC(=O)OCCCNC(=O)NC(=O)c1c[nH]c(=O)[nH]c1=O)NC(=O)c1c[nH]c(=O)[nH]c1=O | 214 µM | 263 µM |  |
| O=C(CCCC[n+]1ccccc1)Sc1ccccc1C(=O)Nc1ccc(S(=O)(=O)c2ccc([N+](=O)[O-])cc2)cc1 | 7.59 µM | 138 µM |  |
| CC1=C(O)C(=O)C=C2C1=CC=C1[C@@]2(C)CC[C@@]2(C)C3C[C@@H](C)C(=O)[C@@H](O)[C@]3(C)CC[C@]12C (stereo partly drawn) | > 1.26 µM | 0.2 µM |  |
| Cc1ccccc1SSCCN |  |  | inactive |
| Cc1[nH]nc2c1NC(=O)OC2 | > 1170 µM | > 1170 µM |  |
| CC[C@@]1(OC(=O)C(N)CCC(=O)O)C(=O)OCc2c1cc1n(c2=O)Cc2cc3ccccc3nc2-1 (stereo partly drawn) | > 10 µM | 0.0145 µM |  |
| CN1C2CCC1[C@@H](CO)[C@@H](O)C2 (stereo partly drawn) | > 1200 µM | > 1200 µM |  |
| O=C1c2ccccc2C(=O)N1CCc1ncc(-c2ccccc2)[nH]1 | > 200 µM | > 200 µM |  |

| SMILES | EC50 | IC50 | outcome |
| --- | --- | --- | --- |
| O=C1c2c(O)cccc2C(C(=O)CCCCC(=O)C2c3cccc(O)c3C(=O)c3c(O)cccc32)c2cccc(O)c21 | > 6.76 µM | > 6.76 µM |  |
| Cc1c(O)c2ccccc2c2c1sc(NCCCN(CCO)CCO)[n+]2C | > 200 µM | 11.2 µM |  |
| O=C(O)c1ccccc1CC1Cc2ccccc2C1=O (stereo not drawn) | > 200 µM | > 200 µM |  |
| CCOP(=O)(/C=C/c1ccccc1)OCC |  |  | inactive |
| CC(=O)Nc1ccc(C2C(C(=O)Nc3ccccc3)=C(C)NC(C)=C2C(=O)Nc2ccccc2)cc1 | > 74.1 µM | > 74.1 µM |  |
| NNC(=Nc1ccccc1)SCc1ccccc1 |  |  | inactive |
| C=C(C)CC1(O[Si](C)(C)C)C(=O)C(OCC)=C1OCC (stereo not drawn) | > 200 µM | > 200 µM |  |
| N#CC1CC(c2ccccc2)=NC1c1ccccc1 (stereo not drawn) | > 29.5 µM | > 29.5 µM |  |
| O=C(O)Cc1ccc(-n2nnc3c(=O)[nH][nH]c(=O)c32)cc1 | > 200 µM | > 200 µM |  |
| COc1ccc(/C=C2N=C(/C=C/c3ccccc3)OC\2=O)cc1OC | 11 µM | 97.7 µM |  |
| NC(CSS(=O)(=O)O)=NCCCCN=C(N)CSS(=O)(=O)O | > 200 µM | > 200 µM |  |
| COc1cc(NC(C)=O)c(OC)cc1Cl |  |  | inactive |
| COc1ccc2[nH]cc([C@@H]3C4CCC(C4)[C@H]3NCc3cccc(CN[C@H]4C5CCC(C5)[C@@H]4c4c[nH]c5ccc(OC)cc45)c3)c2c1 | > 2 µM | 0.324 µM and 0.617 µM |  |
| Cc1ccc(-c2cc(=O)c3cc(C)c(C)c(C(=O)O)c3o2)cc1N |  |  | inactive |
| COC(=O)/C=C\C(C#N)(C#N)N=Cc1ccc(Br)s1 | > 2 µM | 1.1 µM |  |
| COc1ccc(NC(=O)C(=O)C(CC2C(=O)NC(=S)NC2=O)C(=O)c2ccc3ccccc3c2)c([N+](=O)[O-])c1 (stereo not drawn) | > 123 µM | > 123 µM |  |
| O=C(CC(=O)n1nc(-c2ccccc2)c(N=Nc2ccccc2Cl)c1-c1ccccc1)Nc1ccc(Cl)cc1 | > 33.9 µM | > 33.9 µM |  |
| COC(=O)C1C(O)C(C)C(O)C(C)C=C(C)C2=C3C(=C(C)C(=O)c4c(O)c(c(C)c(OC(C)=O)c43)NC(=O)C(C)=C/C=C\C(C)C(O)C(C)C1O)OCO2 (stereo not drawn) | > 77.6 µM |  |  |
| CC(=N\NC(=O)c1ccccc1)/C(C)=N/NC(=O)c1ccccc1 | > 30.9 µM | > 30.9 µM |  |
| O=C(CC(=O)N(C(=O)c1ccccc1)c1ccc(Cl)cc1)N/N=C\c1cc(N=Nc2ccccc2Cl)ccc1O | > 100 µM | > 100 µM |  |
| COC(=O)NC(S(=O)(=O)O)S(=O)(=O)O |  |  | inactive |
| CC1=CC(C)(C)N=C2SC(c3ccc(N)cc3)=NN12 | > 251 µM | 2 µM |  |

| SMILES | EC50 | IC50 | outcome |
| --- | --- | --- | --- |
| Cn1c(=O)c2c3oc(=O)cc(O)c3c(=O)n3c4ccccc4n(c1=O)c23 | > 2.14 µM | > 2.14 µM |  |
| O=C(O)[C@@H](NS(=O)(=O)c1ccc([N+](=O)[O-])cc1)c1ccccc1 |  |  | inactive |
| NC(N)=NCCCC(NCc1c2ccccc2nc2ccccc12)C(=O)O (stereo not drawn) |  |  | inactive |
| CN1CCC/C1=C1/C(=O)N(c2ccccc2)N=C1c1ccc[nH]1 | 191 µM | > 200 µM |  |
| CCN(CC)C(=O)O/N=C/c1ccccc1 | > 200 µM | > 200 µM |  |
| CCOC(=O)C(Cc1c(C=O)[nH]c2ccccc12)(NC(=O)c1ccccc1)C(=O)OCC |  |  | inactive |
| Cn1c(=N)c2cnn(-c3ccccc3)c2n(C)c1=O | > 490 µM | > 490 µM |  |
| COc1ccc(C2OC(c3ccncc3)=NN2C)cc1F (stereo not drawn) | > 200 µM | > 100 µM |  |
| Cn1c(SCc2ccc(F)cc2)nnc1C12CC3CC(CC(C3)C1)C2 | > 200 µM | 105 µM |  |
| Cn1c2ccccc2c(=O)c2c([N+](=O)[O-])ccc(NCCN)c21 |  |  | inactive |
| CCOC1=C(c2ccccc2)N2CCCCC2O1 (stereo not drawn) | > 200 µM | 2.57 µM |  |
| COC(=O)c1cc(-c2c[nH]cc2C(=O)OCc2ccccc2)cn1S(=O)(=O)c1ccc(C)cc1 | > 200 µM | 17.8 µM |  |
| COc1cc(C)c(/C=C/C(=O)N2C(=O)OC[C@@H]2c2ccccc2)c(C)c1 | > 200 µM | 26.9 µM |  |
| CN(C)CCCNC(=O)c1nc(NC(=O)c2nc(NC(=O)c3nc(NC(=O)c4ccc(C(=O)Nc5cn(C)c(C(=O)Nc6cn(C)c(C(=O)Nc7cn(C)c(C(=O)NCCCN(C)C)n7)n6)n5)nc4)cn3C)cn2C)cn1C | > 50.1 µM | > 50.1 µM |  |
| O=C(O)CC[n+]1ccccc1 | > 200 µM | > 200 µM |  |
| CC1(C)C2CC[C@]3(C)C(C(=O)C=C4[C@@H]5C[C@@](C)(C(=O)O)CC[C@]5(C)CCC43C)[C@@]2(C)CC[C@@H]1OC1OC(C(=O)O)C(O)C(O)C1OC1OC(C(=O)O)C(O)C(O)C1O (stereo partly drawn) (tested in a mixture with another compound) |  |  | inactive |
| COC(=O)C1Cc2c(OC)ccc(OC)c2C(O)C1C(=O)OC (stereo not drawn) | > 200 µM | > 200 µM |  |
| CC(=O)OC1CCC2(C)C(CCC3C4CC=C(C(C)=O)C4(C)OC(=O)CC32)C1 (stereo not drawn) |  |  | inactive |
| Cn1c(=O)oc2nc(-c3ccccc3)cc(C(F)(F)F)c21 | > 200 µM | 19.1 µM |  |
